From ChEMBL document CHEMBL5113392, “Novel hybrid pyrrolidinedione-thiazolidinones as potential anticancer agents: Synthesis and biological evaluation” (Eur J Med Chem, 2022)
Active and inactive are the calls of the source. No cut-off for these calls is given here.

Columns and labels:
[1] = tested on: Jurkat; test: Induction of morphological changes in human Jurkat cells assessed as change in cell shape incubated for 24 hrs by Hoechst 33258 and propidium iodide staining based fluorescence microscopy; assay type: functional
[2] = tested on: MCF7; test: Anticancer activity against human MCF7 cells assessed as cell growth inhibition incubated for 72 hrs by MTT assay; assay type: functional
[3] = tested on: Jurkat; test: Induction of morphological changes in human Jurkat cells assessed as chromatin topology incubated for 24 hrs by Hoechst 33258 and propidium iodide staining based fluorescence microscopy; assay type: functional, cell-based
[4] = tested on: HCT-116; test: Induction of DNA damage in human HCT-116 cells assessed as tail DNA at 0.5 uM incubated for 2 hrs by alkaline Comet assay; assay type: functional
[5] = tested on: Jurkat; test: Induction of DNA damage in human Jurkat cells assessed as tail DNA at 0.5 uM incubated for 24 hrs by alkaline Comet assay; assay type: functional
[6] = tested on: U-251; test: Anticancer activity against human U-251 cells assessed as cell growth inhibition incubated for 72 hrs by MTT assay; assay type: functional
[7] = tested on: Jurkat; test: Induction of morphological changes in human Jurkat cells assessed as chromatin fragmentation incubated for 24 hrs by Hoechst 33258 and propidium iodide staining based fluorescence microscopy; assay type: functional, cell-based
[8] = tested on: SK-OV-3; test: Anticancer activity against human SK-OV-3 cells assessed as cell growth inhibition incubated for 72 hrs by MTT assay; assay type: functional
[9] = tested on: MDA-MB-231; test: Anticancer activity against human MDA-MB-231 cells assessed as cell growth inhibition incubated for 72 hrs by MTT assay; assay type: functional
[10] = tested on: Jurkat; test: Induction of apoptosis in human Jurkat cells assessed as increase in Bax level at 0.5 uM for 24 hrs by Western blot analysis; assay type: functional, cell-based
[11] = tested on: Salmon testes DNA; test: Displacement of methyl green from salmon sperm DNA at 10 uM measured after 2 hrs by fluorescence plate reader method relative to control; assay type: nucleic-acid assay; settings: Salmo salar
[12] = tested on: A549; test: Anticancer activity against human A549 cells assessed as cell growth inhibition incubated for 72 hrs by MTT assay; assay type: functional
[13] = tested on: Jurkat; test: Anticancer activity against human Jurkat cells assessed as cell growth inhibition incubated for 72 hrs by MTT assay; assay type: functional
[14] = tested on: HCT-116; test: Induction of DNA damage in human HCT-116 cell lysate assessed as olive tail moment at 0.5 uM incubated for 2 hrs in dark by Comet assay; assay type: functional
[15] = Cytotoxicity against mitogen activated human peripheral blood lymphocytes assessed as cell growth inhibition incubated for 48 hrs by MTT assay; assay type: toxicity, cell-based, Lymphocyte
[16] = tested on: Jurkat; test: Induction of DNA damage in human Jurkat cells assessed as olive tail moment at 0.5 uM incubated for 24 hrs by alkaline Comet assay; assay type: functional
[17] = tested on: HeLa; test: Anticancer activity against human HeLa cells assessed as cell growth inhibition incubated for 72 hrs by MTT assay; assay type: functional
[18] = tested on: Jurkat; test: Induction of apoptosis in human Jurkat cells assessed as increase in cleaved capase-3 level at 0.5 uM for 24 hrs by Western blot analysis; assay type: functional, cell-based
[19] = tested on: Jurkat; test: Induction of apoptosis in human Jurkat cells assessed as decrease in Bcl-2 level at 0.5 uM for 24 hrs by Western blot analysis; assay type: functional, cell-based
[20] = Anticancer activity against human HCT116-p53-null cells assessed as cell growth inhibition incubated for 72 hrs by MTT assay; assay type: functional
[21] = Cytotoxicity against mitogen activated human peripheral blood lymphocytes assessed as cell growth inhibition incubated for 24 hrs by MTT assay; assay type: toxicity, cell-based, Lymphocyte
[22] = tested on: Salmon testes DNA; test: Binding affinity to double stranded salmon sperm DNA assessed as increase in DNA oxidation level by measuring net change in absorbance at 10 uM incubated for 1 hr by UV based spectroscopic method; assay type: nucleic-acid assay; settings: Salmo salar
[23] = tested on: Lymphocyte; test: Induction of DNA damage in mitogen activated human peripheral blood lymphocytes assessed as tail DNA at 0.5 uM incubated for 24 hrs by alkaline Comet assay; assay type: toxicity, cell-based
[24] = tested on: HCT-116; test: Anticancer activity against human HCT-116 cells assessed as cell growth inhibition incubated for 72 hrs by MTT assay; assay type: functional
[25] = tested on: Jurkat; test: Induction of morphological changes in human Jurkat cells assessed as plasma membrane blebbing incubated for 24 hrs by Hoechst 33258 and propidium iodide staining based fluorescence microscopy; assay type: functional, cell-based
[26] = tested on: Jurkat; test: Induction of apoptosis in human Jurkat cells assessed as decrease in Endo-G protein level at 0.5 uM for 24 hrs by Western blot analysis; assay type: functional, cell-based
[27] = Cytotoxicity against human HaCaT cells assessed as cell growth inhibition incubated for 72 hrs by MTT assay; assay type: toxicity, cell-based
[28] = tested on: Jurkat; test: Induction of morphological changes in human Jurkat cells assessed as chromatin condensation incubated for 24 hrs by Hoechst 33258 and propidium iodide staining based fluorescence microscopy; assay type: functional, cell-based
[29] = tested on: KB 3-1; test: Anticancer activity against human KB 3-1 cells assessed as cell growth inhibition incubated for 72 hrs by MTT assay; assay type: functional
[30] = tested on: HCT-116; test: Induction of DNA damage in human HCT-116 cell lysate assessed as tail DNA at 0.5 uM incubated for 2 hrs in dark by Comet assay; assay type: functional
[31] = tested on: HCT-116; test: Induction of DNA damage in human HCT-116 cells assessed as olive tail moment at 0.5 uM incubated for 2 hrs by alkaline Comet assay; assay type: functional
[32] = tested on: Lymphocyte; test: Induction of DNA damage in mitogen activated human peripheral blood lymphocytes assessed as olive tail moment at 0.5 uM incubated for 24 hrs by alkaline Comet assay; assay type: toxicity, cell-based

GI50 [2]: 750 nM
GI50 [6]: 890 nM
GI50 [8]: 9100 nM
GI50 [9]: 5950 nM
Activity [11]: 68.7%
GI50 [12]: 970 nM
GI50 [13]: 430 nM
GI50 [17]: 700 nM
Activity [22]: Active
GI50 [24]: 570 nM
GI50 [29]: 980 nM
SMILES: COc1cccc2c1C(=O)c1c(O)c3c(c(O)c1C2=O)C[C@@](O)(C(=O)CO)C[C@@H]3O[C@H]1C[C@H](N)[C@H](O)[C@H](C)O1 [DOXORUBICIN]
Activity [1]: Active
Activity [3]: Active
Activity [4]: 18%
Activity [5]: 40.9%
Activity [7]: Active
Activity [10]: Active
Activity [14]: 1.95%
GI50 at 48 h [15]: 500 nM
Activity [16]: 12.23%
Activity [18]: Active
Activity [19]: Active
GI50 [20]: 2800 nM
GI50 at 24 h [21]: 2900 nM
Activity [23]: 25.9%
Activity [25]: Active
Activity [26]: Active
GI50 at 72 h [27]: 640 nM
Activity [28]: Active
Activity [30]: 12.6%
Activity [31]: 1%
Activity [32]: 8.12%
